Data as given in patent publication US20250122146A1, “COMPOUNDS FOR REDUCING NEUROINFLAMMATION” (THE SCRIPPS RESEARCH INSTITUTE, priority 2021, published 2025).
“Also recorded” adds a separate entry of the source.

Tests used:
Nrf2/ARE pathway = details: literature statement; cited from earlier work
[1] = system: neural damage / oxidative stress; details: literature statement; cited from earlier work
[2] = system: human iPSC-derived microglia (hiMG); assay: TNF release from hiMG exposed to oligomeric Aβ and αSyn with their antibodies, ELISA; format: cell-based; details: oligomeric Aβ (~750 nM oligomers) + oligomeric αSyn (~100 nM) with anti-αSyn & anti-Aβ antibodies; carnosic acid 2 μM; n=3 per group
Experimental: (§1) Proinflammatory microglial activation. Following a protocol adapted from D. Trudler et al. (2021), human induced pluripotent stem cell (hiPSC)-derived microglia (hiMG) were plated at a concentration of 1×10^6 cells/mL. 16 h before the experiment the cell medium was changed to IMDM (no supplements added). Carnosic acid (CA, purity >99%) was added 16 hours before the experiment, at a concentration of 2 μM. Recombinant αSyn oligomers (100 nM) and oligomeric Aβ (10 μM) were incubated with 2.5 μg/mL of their respective antibodies for 1 h prior to adding to hiMG for additional 6 hours. Media was collected and cytokine levels, IL-1β or tumor necrosis factor (TNF), were measured by ELISA per the manufacturer's instructions.
(§2) Carnosic Acid Reduces Neuroinflammation Induced by Antibody-Misfolded Protein Complex. NLRP3 inflammasome activation was assessed by measuring the release of the proinflammatory cytokine interleukin-1β (IL-1β) from hiMG exposed to (A) oligomeric Aβ (500 nM oligomers) and low concentrations of oligomeric αSyn (100 nM), (B) Aβ and αSyn with their cognate human antibodies (anti-Aβ and anti-αSyn, respectively), and (C) same as (B) with carnosic acid.

[3] = system: human iPSC-derived microglia (hiMG); assay: IL-1β release (NLRP3 inflammasome activation) from hiMG exposed to oligomeric Aβ and αSyn with their antibodies, ELISA; format: cell-based; details: oligomeric Aβ (~500 nM oligomers) + oligomeric αSyn (~100 nM) with anti-αSyn & anti-Aβ antibodies; carnosic acid 0.1-10 μM; n=3 per group
Experimental: as §1, §2

[4] = system: HSF-1 and Nrf2 transcription pathways; details: literature statement (Satoh et al. 2015); cited from earlier work

Compound: C=C1CC[C@@H]2C(C)(C)CCCC2(C)C1Cc1cc(O)ccc1O (stereo partly shown) [Zonarol, zonarol]
- activation of the Nrf2/ARE pathway (Nrf2/ARE pathway): activate the Nrf2/ARE pathway
- neuroprotective effect [1]: exert neuroprotective effects against oxidative stress

Compound: CC(C)c1cc2c(c(O)c1O)[C@@]1(C(=O)O)CCCC(C)(C)[C@@H]1CC2 [Carnosic acid, carnosic acid]
- TNF release from hiMG [2]: significantly reduced TNF release; also recorded: significantly reduced the type of inflammation
- IL-1β release from hiMG [3]: significantly reduced IL-1β release; also recorded: reduction in IL-1β
- activation of the Nrf2/ARE pathway (Nrf2/ARE pathway): activates the Nrf2/ARE pathway
- neuroprotective effect [1]: affording protection against neural damage
- activation of HSF-1 and Nrf2 transcription pathways [4]: activates both the HSF-1 and Nrf2 transcription pathways
